In patent US20120238533A1, “(Heteroarylmethyl) Thiohydantoins as anticancer drugs” (BAYER PHARMA AKTIENGESELLSCHAFT, priority 2009, published 2012):

Key:
[1] = tested on: Eker rat leiomyoma tumor-derived cells (Elt3); assay: Proliferation of Eker rat leiomyoma tumor-derived cells (Elt3), CellTiter-Glo viability assay; format: cell-based; conditions: for proliferation of Eker rat myoma cell line (Elt3): different concentrations, 7 days incubation, FIG. 1 and FIG. 2, range comparable to estradiol
Procedure: Elt3 cells were obtained from Cheryl Walker (University of Texas). In comparison to other cells, Elt3 cells were characterized to be tumorigenic in nude mice (C. Walker, Recent Prog. Horm. Res., January 2002; 57: 277). Elt3 cells were grown to confluence in T-75 flasks with DMEM containing 10% FCS at 37° C. and 5% CO2. The medium was changed into 1% CCS for 24 h. 1000 cells were seeded in 96-well-plates for 24 hours. Elt3 cells were incubated with test compounds for 7 days. The CellTiter-Glo® Luminescent Cell Viability Assay (Promega) was used for determination of the number of viable cells in culture based on quantitation of the ATP present, an indicator of metabolically active cells.
Elt3 cells were obtained and grown to confluence and were seeded as described above. Elt3 cells were incubated with test compounds for 7 days. The CellTiter-Glo® Luminescent Cell Viability Assay (Promega) was used for determination of the number of viable cells in culture based on quantitation of the ATP present, an indicator of metabolically active cells.

[2] = tested on: human uterine leiomyoma xenografts; assay: Xenograft of human uterine leiomyoma in immunodeficient mice, graft weight; format: in vivo; conditions: 60 d, SCID mice with E2 and P pellets, p<0.05
Procedure: Human uterine leiomyoma (UL) tissue was derived from any form of surgical intervention indicated for the respective diagnosis, either by hysterectomy with subsequent preparation of the tissues or by myomenucleation with or without morcellation for removal of the tissue from the abdominal cavity. Immediately after the surgery the UL tissue was placed into an appropriate sterile buffer (Vitron V7 buffer (U.S. Pat. No. 5,328,821) or Viaspan buffer for organ transplantation) at 4° C. for transport from the clinic. Under a sterile workbench, the UL tissue was cut into small pieces of 2×2×2 mm while keeping the tissue constantly moist. The small pieces of tissue were placed in tissue wells with PBS at room temperature for xenotransplantation. (M Fritsch et al. 2010, ISGE abstract & presentation). […] Therefore, graft weight was taken as a primary read-out parameter for growth of UL tissue (FIGS. 5 and 6). […]
(§1) Experiment 2 (the Thioxoimidazolidine Derivative as Androgen Receptor Antagonist)—FIGS. 6 and 7 • Human myoma tissue from two different patients was grafted s.c. in SCID mice; and the mice were treated as described in method above. […] BrdU positive nuclei were visualized by immunohistochemical staining in formalin-fixed graft sections, pictures were taken, and BrdU-positive nuclei per area were counted using the MIRAX Histoquant software (3DHISTECH Ltd, Budapest, Hungary). […]

primary myoma cells = assay: Proliferation of primary myoma cells, CellTiter-Glo viability assay; format: cell-based, human; conditions: 10^−6 M, 7 days; p<0.05 vs. DMSO; FIG. 3; range comparable to estradiol
[3] = tested on: human uterine leiomyoma xenografts; assay: Human xenograft cell proliferation (BrdU positive nuclei) in immunodeficient mice; format: in vivo; conditions: last week of Experiment 2, 15 mg/kg/d p.o. daily; two donors; FIG. 7
Procedure: Human uterine leiomyoma (UL) tissue was derived from any form of surgical intervention indicated for the respective diagnosis, either by hysterectomy with subsequent preparation of the tissues or by myomenucleation with or without morcellation for removal of the tissue from the abdominal cavity. Immediately after the surgery the UL tissue was placed into an appropriate sterile buffer (Vitron V7 buffer (U.S. Pat. No. 5,328,821) or Viaspan buffer for organ transplantation) at 4° C. for transport from the clinic. Under a sterile workbench, the UL tissue was cut into small pieces of 2×2×2 mm while keeping the tissue constantly moist. The small pieces of tissue were placed in tissue wells with PBS at room temperature for xenotransplantation. (M Fritsch et al. 2010, ISGE abstract & presentation). […] Therefore, graft weight was taken as a primary read-out parameter for growth of UL tissue (FIGS. 5 and 6).
as §1

`CC(O)(CS(=O)(=O)c1ccc(F)cc1)C(=O)Nc1ccc(C#N)c(C(F)(F)F)c1` (stereo not drawn) [bicalutamide, N-[4-cyano-3-(trifluoromethyl)phenyl]-3-[(4-fluorophenyl)sulfonyl]-2-hydroxy-2-methylpropanamide] was tested, and the “effect on DHT-induced proliferation of Elt3 cells” value ([1]; 10^−7 M bicalutamide with 10^−9 M DHT, p<0.05 vs. DHT, FIG. 4) was “abolished” and the “graft weight reduction vs. respective controls” value ([2]; Experiment 1: 15 mg/kg/d p.o. every 2nd day, tissue from three patients, FIG. 5) was over 30%.

For `C[C@]12CCC(=O)C[C@@H]1CC[C@@H]1[C@@H]2CC[C@]2(C)[C@@H](O)CC[C@@H]12` [dihydrotestosterone, 5α-dihydrotestosterone], the “proliferation of primary myoma cells” value (primary myoma cells) was “significantly induce an increase of proliferation”, the “proliferation of Elt3 cells” value ([1]; 10^−9 M DHT, 7 days, p<0.05 vs. DMSO, FIG. 4) was “significantly increased” and the “proliferation of Eker rat myoma cell line (Elt3)” value [1] was “dose-dependent increase of proliferation”.

In the case of `C[C@]12CC[C@H]3[C@@H](CCC4=CC(=O)CC[C@@]43C)[C@@H]1CC[C@@H]2O` [testosterone], the “proliferation of primary myoma cells” value (primary myoma cells) is reported as “significantly induce an increase of proliferation” and the “proliferation of Eker rat myoma cell line (Elt3)” value [1] is reported as “dose-dependent increase of proliferation”.

With `CC(C)(O)COc1ccc(CN2C(=S)N(c3ccc(C#N)c(C(F)(F)F)c3)C(=O)C2(C)C)cn1` [thioxoimidazolidine derivative, 4-(3-{[6-(2-hydroxy-2-methylpropoxy)pyridin-3-yl]methyl}-4,4-dimethyl-5-oxo-2-thioxoimidazolidin-1-yl)-2-(trifluoromethyl)benzonitrile] the “proliferation of grafts (BrdU-positive nuclei per area)” value [3] was “clearly reduced” and the “graft weight reduction vs. respective controls” value ([2]; Experiment 2: 15 mg/kg/d p.o. daily, tissue from two patients, FIG. 6) was over 50%.
